Data as given in ChEMBL document CHEMBL1201862, “PubChem BioAssay data set” (2004).
Active and inactive are the calls of the source.

Experiments:
CAAX prenyl protease 2 [1] = target: T1, CAAX prenyl protease 2 (Saccharomyces cerevisiae S288c, UniProt Q03530); assay type: biochemical
T1 sequence (Q03530 whole entry): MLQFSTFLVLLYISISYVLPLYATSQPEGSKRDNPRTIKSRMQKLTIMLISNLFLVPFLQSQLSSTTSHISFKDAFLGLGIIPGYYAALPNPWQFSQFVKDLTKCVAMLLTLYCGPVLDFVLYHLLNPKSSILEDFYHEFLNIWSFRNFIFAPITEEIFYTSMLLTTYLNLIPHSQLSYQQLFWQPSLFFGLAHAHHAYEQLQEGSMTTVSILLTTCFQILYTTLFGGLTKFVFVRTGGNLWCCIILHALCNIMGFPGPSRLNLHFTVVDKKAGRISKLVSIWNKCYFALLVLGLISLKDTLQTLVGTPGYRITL

CAAX prenyl protease 2 [2] = target: T1, CAAX prenyl protease 2; test: yeast Rce1 CaaX protease inhibitors, dose response, biochemical, plate reader, dry powder retest (AID 588851)
[3] = target: Glycogen synthase kinase-3 alpha (Homo sapiens, UniProt P49840); test: Inhibition of Human GSK-3 alpha Activity Measured in Biochemical System Using Microfluidics - 2063-06_Inhibitor_Dose_DryPowder_Activity_Set2. [Related pubchem assays (depositor defined):AID2709]
[4] = target: Glycogen synthase kinase-3 beta (Homo sapiens, UniProt P49841); test: Inhibition of Human GSK-3 beta Activity Measured in Biochemical System Using Microfluidics - 2063-05_Inhibitor_Dose_DryPowder_Activity_Set2. [Related pubchem assays (depositor defined):AID2709]
[5] = NIH-3T3 fibroblast cytotoxicity, dose response, cytotoxicity control, cell-based, fluorescence, Alamar Blue, secondary assay (AID 2327); assay type: functional;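 further: NIH-3T3 mouse fibroblasts cultured with fluconazole at 8 µg/mL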
[6] = C. albicans growth with fluconazole, confirmation, fluorescence, retest (AID 2467); assay type: functional, cell-based
[7] = inhibitors of intracellular T. cruzi replication, confirmation, NIH3T3 host cells, beta-gal luminescence (AID 2044); assay type: functional, cell-based;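 further: intracellular parasites grown in NIH/3T3 mouse fibroblasts as host cells; luminescent beta-galactosidase reporter signal from transgenic T. cruzi replicating inside host cells; inhibitors lower the luminescence signal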
[8] = target: Serine/threonine-protein phosphatase (Candida dubliniensis (strain CD36 / CBS 7987 / NCPF 3949 / NRRLY-17841) (Yeast), UniProt B9W6M3); test: calcineurin pathway inhibitors in yeast reporter, dose response, S. cerevisiae, CDRE-lacZ, luminescence, secondary (AID 2388); assay type: functional, cell-based;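 further: yeast reporter cells carrying a calcineurin-responsive lacZ construct stimulated with calcium chloride; luminescent beta-galactosidase reporter signal in whole cells rather than isolated phosphatase activity; potency for inhibition where a drop in reporter signal means calcineurin blockade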
[9] = cytotoxicity toward NIH3T3 fibroblasts, dose response, counter-screen, cell-based, ATP luminescence, mouse fibroblasts (AID 2010); assay type: functional;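 further: cells exposed to compound for about 90 hours before reading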
Candida albicans [10] = test: C. albicans growth inhibition with fluconazole, dose response, antifungal resistance reversal project, CaCi-2 strain, Alamar Blue, dry powder, set 2 (AID 488930); assay type: functional, organism-based
HEK293 = test: inhibitors of LMP1-driven NF-kB reporter, dose response, cell-based, HEK293, luciferase, cherry-pick (AID 588343); assay type: functional; conditions: Homo sapiens
Candida albicans [11] = test: fluconazole resistance reversal in C. albicans, dose response, CaCi-2 strain, Alamar Blue, dry powder, set 4 (AID 488943); assay type: functional, organism-based
Candida albicans [12] = test: growth inhibition of resistant C. albicans, dose response, CaCi-8, fluconazole, Alamar Blue, dry powder (AID 488807); assay type: functional, organism-based
Candida albicans [13] = test: single-agent growth inhibition of C. albicans, dose response, counter-screen for antifungal drug resistance project, C. albicans CaCi-2, dry powder (AID 488802); assay type: functional, organism-based
Candida albicans [14] = test: growth inhibition of azole-resistant C. albicans, dose response, CaCi-8 strain, Alamar Blue, dry powder, set 2 (AID 488909); assay type: functional, organism-based
NIH3T3 = test: cytotoxicity in NIH-3T3 fibroblasts, dose response, cytotoxicity control for antifungal drug resistance project, cell-based, Alamar Blue, fluconazole, dry powder (AID 488809); assay type: functional; conditions: Mus musculus
[15] = target: ATP-dependent molecular chaperone HSP82 (Candida albicans (strain WO-1) (Yeast), UniProt C4YTQ8); test: loss of DOC-induced GRE-beta-galactosidase reporter signal, dose response, Hsp90 inhibitor project, S. cerevisiae, luminescence (AID 2400); assay type: functional, cell-based;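 further: beta-galactosidase luminescence from glucocorticoid response element reporter as proxy for Hsp90 function; inhibitor potency where signal loss means Hsp90 inhibition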
Protein Wnt-3a = Protein Wnt-3a (Mus musculus, UniProt P27467); test: Wnt3a-driven reporter signaling inhibition, dose response, selectivity assay for Gli-SUFU antagonist project, Wnt-LIGHT cells, luminescence (AID 651570); assay type: functional; conditions: read-out: IC50_Mean;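 further: Wnt-LIGHT reporter cells stimulated with conditioned medium from Wnt3a-producing cells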
[16] = microbe, parasite or virus in culture; assay type: functional; conditions: Mycobacterium tuberculosis
[17] = target: Heat shock protein HSP 90-alpha (Homo sapiens, UniProt P07900); assay type: functional, organism-based
[18] = A Cell Based Secondary Assay to Explore Cytotoxicity in THP-1 Cells of Compounds that Modulate Mycobacterium tuberculosis in Media Containing Glycerol versus Media without Glycerol (2).; assay type: functional
[19] = Vero cell cytotoxicity, cytotoxicity control for M. tuberculosis inhibitor project, purified and synthesized samples, set 3 (AID 504684); assay type: functional
[20] = A Cell Based Secondary Assay to Explore Cytotoxicity in HepG2 Cells of Compounds that Modulate Mycobacterium tuberculosis in Media Containing Glycerol versus Media without Glycerol (2).; assay type: functional

Sequence of ATP-dependent molecular chaperone HSP82 (C4YTQ8 whole entry): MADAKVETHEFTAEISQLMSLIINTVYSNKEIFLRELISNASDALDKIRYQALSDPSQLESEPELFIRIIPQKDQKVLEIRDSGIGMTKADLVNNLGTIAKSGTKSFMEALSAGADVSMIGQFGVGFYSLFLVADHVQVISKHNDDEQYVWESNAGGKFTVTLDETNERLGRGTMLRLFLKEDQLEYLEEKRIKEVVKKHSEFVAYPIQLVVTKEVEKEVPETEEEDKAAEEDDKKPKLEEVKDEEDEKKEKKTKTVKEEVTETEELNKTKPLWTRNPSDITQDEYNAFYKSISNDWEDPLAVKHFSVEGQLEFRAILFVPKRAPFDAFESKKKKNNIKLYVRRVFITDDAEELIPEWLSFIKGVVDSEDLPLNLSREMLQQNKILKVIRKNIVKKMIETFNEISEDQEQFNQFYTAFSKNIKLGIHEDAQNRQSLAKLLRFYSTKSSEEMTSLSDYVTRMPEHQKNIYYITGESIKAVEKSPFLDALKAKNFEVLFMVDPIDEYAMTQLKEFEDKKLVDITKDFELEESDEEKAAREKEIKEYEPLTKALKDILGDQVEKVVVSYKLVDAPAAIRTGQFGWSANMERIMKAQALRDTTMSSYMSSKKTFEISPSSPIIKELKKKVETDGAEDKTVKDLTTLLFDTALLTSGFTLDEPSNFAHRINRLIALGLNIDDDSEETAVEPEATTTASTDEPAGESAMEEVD
Sequence of Serine/threonine-protein phosphatase (B9W6M3 whole entry): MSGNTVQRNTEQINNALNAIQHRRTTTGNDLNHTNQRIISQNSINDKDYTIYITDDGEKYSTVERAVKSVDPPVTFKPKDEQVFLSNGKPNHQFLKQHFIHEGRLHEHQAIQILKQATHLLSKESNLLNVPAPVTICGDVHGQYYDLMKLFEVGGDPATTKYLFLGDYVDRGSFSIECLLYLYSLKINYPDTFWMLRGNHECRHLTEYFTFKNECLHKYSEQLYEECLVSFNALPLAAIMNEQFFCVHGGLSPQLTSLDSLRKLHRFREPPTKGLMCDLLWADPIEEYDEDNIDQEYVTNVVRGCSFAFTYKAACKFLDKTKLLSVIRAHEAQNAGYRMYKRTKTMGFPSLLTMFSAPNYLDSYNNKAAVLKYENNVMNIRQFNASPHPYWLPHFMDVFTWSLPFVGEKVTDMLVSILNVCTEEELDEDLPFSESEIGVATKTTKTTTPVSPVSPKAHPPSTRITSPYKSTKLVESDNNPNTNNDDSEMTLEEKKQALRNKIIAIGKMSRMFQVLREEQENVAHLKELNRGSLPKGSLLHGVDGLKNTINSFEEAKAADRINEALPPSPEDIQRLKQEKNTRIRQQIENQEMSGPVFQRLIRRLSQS
Sequence of Glycogen synthase kinase-3 alpha (P49840 whole entry): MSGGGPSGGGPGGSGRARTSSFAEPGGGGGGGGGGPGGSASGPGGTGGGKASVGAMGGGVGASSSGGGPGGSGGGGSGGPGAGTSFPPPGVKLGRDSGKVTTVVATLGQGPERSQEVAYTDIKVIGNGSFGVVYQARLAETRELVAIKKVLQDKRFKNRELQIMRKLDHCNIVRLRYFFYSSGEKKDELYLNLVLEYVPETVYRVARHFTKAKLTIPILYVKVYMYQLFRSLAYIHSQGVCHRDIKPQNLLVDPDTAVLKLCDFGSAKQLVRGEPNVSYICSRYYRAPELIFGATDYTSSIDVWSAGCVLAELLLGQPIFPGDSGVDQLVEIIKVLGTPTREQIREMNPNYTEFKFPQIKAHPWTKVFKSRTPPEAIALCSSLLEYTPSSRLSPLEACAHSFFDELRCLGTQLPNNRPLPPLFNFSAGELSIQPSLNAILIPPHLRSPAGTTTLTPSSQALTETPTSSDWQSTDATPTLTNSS
Sequence of Protein Wnt-3a (P27467 whole entry): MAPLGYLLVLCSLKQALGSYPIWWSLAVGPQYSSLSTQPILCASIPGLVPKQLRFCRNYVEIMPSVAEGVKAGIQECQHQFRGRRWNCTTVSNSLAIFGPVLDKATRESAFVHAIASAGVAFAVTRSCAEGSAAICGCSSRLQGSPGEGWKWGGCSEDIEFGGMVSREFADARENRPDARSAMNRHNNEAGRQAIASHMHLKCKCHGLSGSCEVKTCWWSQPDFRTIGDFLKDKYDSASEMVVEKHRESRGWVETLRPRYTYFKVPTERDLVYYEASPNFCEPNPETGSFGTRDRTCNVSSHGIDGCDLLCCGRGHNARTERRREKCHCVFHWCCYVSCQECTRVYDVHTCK
Sequence of Glycogen synthase kinase-3 beta (P49841 whole entry): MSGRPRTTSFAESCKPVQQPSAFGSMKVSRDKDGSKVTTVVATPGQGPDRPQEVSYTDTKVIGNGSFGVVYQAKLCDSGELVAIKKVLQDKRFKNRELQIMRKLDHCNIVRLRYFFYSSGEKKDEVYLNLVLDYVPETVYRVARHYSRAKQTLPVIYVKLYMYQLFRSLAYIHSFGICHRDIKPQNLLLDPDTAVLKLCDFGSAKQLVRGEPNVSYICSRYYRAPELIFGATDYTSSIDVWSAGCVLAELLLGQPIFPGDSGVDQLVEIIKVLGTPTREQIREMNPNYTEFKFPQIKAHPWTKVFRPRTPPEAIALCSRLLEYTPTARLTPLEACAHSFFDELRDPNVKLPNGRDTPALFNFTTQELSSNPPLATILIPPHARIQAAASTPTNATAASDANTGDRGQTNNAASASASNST

For `CN(C(=O)COC(=O)c1cn(-c2ccccc2)nc1-c1ccccc1)C1CCS(=O)(=O)C1` (centres undefined), the AC50 (CAAX prenyl protease 2 [1]) was 0.679 µM (active) and the AC50 (CAAX prenyl protease 2 [2]) was 25.1 µM (active).
In the case of `COC(=O)c1nnn(-c2nonc2N)c1CSc1nc2ccccc2s1`, the AC50 [3] was 4.24 µM (active) and the AC50 [4] was 1.31 µM (active).
For `O=C(c1ccc(Cl)cc1)N1CCN(c2ccnc3cc(Cl)ccc23)CC1`, the EC50 [5] was > 150 µM (inactive), the EC50 [6] was 0.742 µM (active) and the EC50 [7] was 1.34 µM (active). The EC50 [8] was > 180 µM (inactive), the EC50 [9] was > 60 µM (not active) and the AC50 (Candida albicans [10]) was 0.522 µM (active). For the same compound, the AC50 (HEK293) was 16.4 µM (active), the AC50 (Candida albicans [11]) was 0.306 µM (active) and the AC50 (Candida albicans [11]; Candida albicans) was 0.362 µM (active). The AC50 (Candida albicans [12]) was 0.87 µM (active), the AC50 (Candida albicans [13]) was 3.73 µM (active) and the AC50 (Candida albicans [14]) was 3.46 µM (active). The AC50 (NIH3T3) was 22.9 µM (active), the EC50 [15] was > 150 µM (inactive) and the IC50 (Protein Wnt-3a) was 8.3 µM (active).
With `CCC(C)Nc1ccc(NC(C)CC)cc1` (centres undefined) the CC50 [16] was 15.9 µM (active), the AC50 [17] was 4.52 µM (active) and the CC50 [18] was 3.8 µM (active). The CC50 [19] was 11.2 µM (active) and the CC50 [20] was 6.68 µM (active).
